Experiment [1] has as its system mural granulosa cells. The experiment in a line: Mural granulosa cell DNA synthesis, 3H-thymidine incorporation. It counts as cell-based, marmoset monkey, Callithrix jacchus. The conditions noted are these: GC from large antral follicles. The method, then:
Mural GC from large antral follicles were cultured for 24h and thymidine incorporation was stimulated with 175 ng/ml GDF9. […] Bars/points represent means+/−SEM from 3 replicate experiments expressed as a fold change relative to control.
Follicles were manually excised and separated into 3 size classes: periantral (PA; 0.42-0.66 mm), small antral (SA; 0.66-1.5 mm) and large antral (LA; >1.5 mm). GCs from each follicle size were collected and pooled, then washed twice in bicarbonate-buffered tissue culture medium-199 (B-TCM) supplemented with 0.3 mg/ml of polyvinyl alcohol (PVA, Sigma). Depending on the individual experiments, mural GCs (1×10^5 cells/ml), hormones, inhibitors and media were added to wells of 96-well plates (Falcon) to give a final volume of 125 μl. Within each experiment, all treatments were carried out in at least duplicate wells and each experiment was replicated on at least 3 occasions. Cells were cultured in an atmosphere of 37° C., 96% humidity in 5% CO2 in air for 18 hours, followed by a further 6 hour pulse of 15.4 kBq tritiated thymidine (3H-thymidine, ICN) under the same conditions.
Seven adult female marmosets were primed with […] for 6 days, whole ovaries were removed on day 7, follicles manually excised, and GC were then collected from 3 size classes: periantral (PA; 0.42-0.66 mm), small antral (SA; 0.66-1.5 mm) and large antral (LA; >1.5 mm). Four different approaches were utilized to examine GDF9 function in GC. […] To examine the GDF9 signalling pathway, cultured GC from LA follicles were transfected with either a CAGA-luciferase or BRE-luciferase reporter construct and treated with various TGF-β superfamily growth factors or co-cultured with mouse oocytes. In order to determine the effects of GDF9 on marmoset GC proliferation, we employed a GC bioassay whereby after 24 h ^3H-thymidine incorporation is assessed as an indicator of DNA synthesis and cellular proliferation. […] In another experiment, GC were treated with an increasing dose of SB431542, an activin-like kinase (ALK) 4/5/7 inhibitor, in the presence of GDF9+/−IGF1.
In general terms: Uptake of a labelled nucleoside into DNA is a usual measure of proliferation.

The subject of experiment [2] is activin receptor-like kinases (ALKs) 4, 5 and 7. Conditions: competitive ATP binding site kinase inhibitor; without effecting ALKs 1, 2, 3 or 6 or other cellular kinases; cited from earlier work.
The subject of experiment [3] is cumulus-oocyte complexes. The experiment in a line: Study IV: oocyte developmental competence after IVM, IVF and embryo culture. It counts as cell-based, Bovine. The method, then: Unless otherwise specified, all chemicals and reagents were purchased from Sigma (St Louis, Mo.). Bovine ovaries were collected from local abattoirs and transported to the laboratory in warm saline (30-35° C.). COCs were aspirated from antral follicles (3 to 5 mm diameter) using an 18-gauge needle and a 10-ml syringe containing ˜2 ml aspiration medium (Hepes-buffered. Tissue Cultured Medium-199; TCM-199. ICN Biochemicals, Irvine, Calif., USA) supplemented with 50 μg/ml kanamycin, 0.5 mM sodium pyruvate, 50 μg/ml heparin and 4 mg/ml fatty acid-free bovine serum albumin (FAF-BSA; ICPbio Ltd, Aukland, NZ). Intact COCs with compact cumulus vestments>˜5 cell layers and evenly pigmented cytoplasm were selected under a dissecting microscope and washed twice in Hepes-buffered TCM-199 and once in Hepes-buffered TCM-199 supplemented with 10% fetal calf serim (FCS) (Invitrogen, Carlsbad, Calif.). The basic medium for oocyte maturation was Bovine VitroMat (Cook Australia, Eight Mile Plains, Qld, Australia), a medium based on the ionic composition of bovine follicular fluid. […] Complexes were cultured in pre-equilibrated 300 ? l drops overlaid with mineral oil and incubated at 39° C. with 5% CO2 in humidified air for 24 hour. […]
Recombinant mouse GDF9 and recombinant ovine BMP15 were produced and partially purified in-house as previously described using transfected 293 human embryonic kidney cell lines (293H) originally donated by O. Ritvos (University of Helsinki). Control conditioned medium (hereafter designated ‘293H’) was produced from untransfected 293H cells and subjected to the same chromatography procedures as GDF9 and BMP15 conditioned media.
Consequently, SB-431542 potently antagonizes the ALK 4/5 ligands; TGF-β1, the activins and GDF9, without affecting BMP signalling (Inman et al., 2002; Gilchrist et al., 2006). […] Follistatin-288 was generously donated by S. Shimasaki (University of California San Diego, USA) and we have previously shown that this binding protein antagonizes the bioactivities of native OSFs and recombinant BMP15 in CCs.
In vitro production of embryos was undertaken using defined, serum-free media (Bovine Vitro series of media, Cook Australia). Frozen semen from a single bull of proven fertility was used in all experiments. Briefly, thawed semen was layered over a discontinuous (45%: 90%) Percoll gradient (Amersham Bioscience) and centrifuged (RT) for 20-25 mins at 700 g. The supernatant was removed and the sperm pellet was washed with 500 μl Bovine VitroWash (Cook Australia) and centrifuged for a further 5 minutes at 200 g. Spermatozoa were resuspended with IVF medium (Bovine VitroFert, Cook Australia), then added to the fertilization media drops (Bovine VitroFert, supplemented with 0.01 mM heparin, 0.2 mM penicillamine and 0.1 mM hypotaurine) at a final concentration of 1×106 spermatozoa/ml. COCs were inseminated at a density of 10 μl of IVF medium per COC for 24 h, at 39° C. in 6% CO2 in humidified air.
CCs were removed by gentle pipetting 23-24 h post insemination and five presumptive zygotes were transferred into 20 μl drops of pre-equilibrated Cook Bovine VitroCleave medium (Cook Australia) and cultured under mineral oil at 38.5° C. in 7% O2, 6% CO2, balance N2, for five days (day 1 to day 5).
On Day 5, embryos were transferred in groups of 5-6 to 20 μl drops of pre-equilibrated Bovine VitroBlast (Cook Australia) at 38.5° C. overlaid with mineral oil and cultured to Day 8. Embryos were assessed for quality at Day 8 according to the definitions presented in the Manual of the International Embryo Transfer Society (Stringfellow, 1998) and were performed independently and blinded by an experienced bovine embryologist.
Cell counts were performed using a modified version of the technique described by (Fouladi-Nashta et al., 2005). […]

The structures appear in SMILES notation.

For `NC(=O)c1ccc(-c2nc(-c3ccc4c(c3)OCO4)c(-c3ccccn3)[nH]2)cc1` [SB-431542, reference compound], the “DNA synthesis stimulated by GDF9 in the presence of inhibitor” value in experiment [1] (175 ng/ml GDF9, 24 h) is given as “dose-dependently inhibited”. The “stimulatory effects of GDF9 on DNA synthesis at 1 μM inhibitor” value in experiment [1] (1 μM) is “completely eliminate”. In addition, the kinase selectivity result in experiment [2] is “specifically antagonizing the activities of activin receptor-like kinases (ALKs) 4, 5 and 7”. The “blastocyst development of control COCs treated with antagonist” value in experiment [3] (4 μM SB-431542 or 10 μg/ml follistatin-288, compared to untreated COCs) is “significantly (P<0.05) decreased”. In addition, the “effect on cleavage rate” value in experiment [3] (Experiments 3 & 4, 4 μM SB-431542, 175 ng/ml GDF9, 10% v/v BMP15, 10% v/v 293H) is given as “no influence”. The “increase of blastocyst yields by GDF9 or BMP15 on addition of the respective antagonist” value in experiment [3] (SB-431542 against GDF9, follistatin against BMP15) is “ablated”.

The record behind these values is patent US8530235B2, “Medium that supports culture of an oocyte and modulation of granulosa cell apoptosis” (Adelaide Research & Innovation Pty Ltd., priority 2005, dated 2013).
